From patent US6372917B1, “Biphenylsulfonyl-substituted imidazole derivatives, their preparation process, their use as a drug or diagnostic agent and drug containing them” (Aventis Pharma Deutschland GmbH, priority 1998, dated 2002)

What was measured:
[1] = system: Na+-dependent Cl-/HCO3- exchanger (NCBE); experiment: Inhibition of the Na+-dependent Cl-/HCO3- exchanger (NCBE) in human endothelial cells (pHi recovery, BCECF fluorescence, FLIPR); assay type: cell-based; details: inhibitor concentration 10 μM; human endothelial cells (ECV-304); 50 μM HOE 642 present; 35° C., 2 minutes
Description: Inhibition of the Na^+-dependent Cl^−/HCO3^− exchanger (NCBE) in human endothelial cells
Human endothelial cells (ECV-304) were detached from culture bottles with the aid of trypsin/EDTA buffer (0.05/0.02% in phosphate buffer) and, after centrifugation (100 g, 5 min), taken up in a buffered salt solution (mmol/l: 115 NaCl, 20 NH4Cl, 5 KCl, 1 CaCl2, 1 MgSO4, 20 N-(2-hydroxyethyl)piperazine-N-2-ethanesulfonic acid (HEPES), 5 glucose and 1 g/l of bovine serum albumin; pH 7.4). This cell suspension was incubated at 37° C. for 20 min with 5 μM BCECF-acetoxymethyl ester. […] For subsequent fluorescence measurement in an FLIPR (Fluorescent Imaging Plate Reader) 100 μl of this cell suspension having 20,000 cells in each case were pipetted per well into a 96-well microtiter plate and this microtiter plate was centrifuged (100 g, 5 min). […] After addition of the buffer solutions to the dye-loaded, acidified cells in the measurement plate, the rise in the fluorescence intensity, which corresponded to a rise in the pHi, in each well of the microtiter plate was determined. The kinetics were in this case recorded at 35° C. for a period of 2 minutes. The increase in the fluorescence intensities for different concentrations of the compounds according to the invention was related to the two controls and from this the inhibitory action of the substances was determined.

- melting point: 220 °C (dec.)
Structure (SMILES): CS(=O)(=O)c1cc(-c2ccccc2S(=O)(=O)NC#N)ccc1Cn1c(-c2ccccc2)nc(Cl)c1C=O [Example 2, 4′-(4-Chloro-5-formyl-2-phenylimidazol-1-ylmethyl)-3′-methanesulfonylbiphenyl-2-sulfonylcyanamide]
- Residual activity of the NCBE at an inhibitor concentration of 10 μM [1]: 18.3%
